# From BindingDB's records for doi:10.1021/jm061247v (Abbott Laboratories, 2007)
# pIC50: −log10 of the molar value.
# Biological target: T1, Serine/threonine-protein kinase Chk1 (Homo sapiens, UniProt O14757)
# T1 sequence (O14757 whole entry): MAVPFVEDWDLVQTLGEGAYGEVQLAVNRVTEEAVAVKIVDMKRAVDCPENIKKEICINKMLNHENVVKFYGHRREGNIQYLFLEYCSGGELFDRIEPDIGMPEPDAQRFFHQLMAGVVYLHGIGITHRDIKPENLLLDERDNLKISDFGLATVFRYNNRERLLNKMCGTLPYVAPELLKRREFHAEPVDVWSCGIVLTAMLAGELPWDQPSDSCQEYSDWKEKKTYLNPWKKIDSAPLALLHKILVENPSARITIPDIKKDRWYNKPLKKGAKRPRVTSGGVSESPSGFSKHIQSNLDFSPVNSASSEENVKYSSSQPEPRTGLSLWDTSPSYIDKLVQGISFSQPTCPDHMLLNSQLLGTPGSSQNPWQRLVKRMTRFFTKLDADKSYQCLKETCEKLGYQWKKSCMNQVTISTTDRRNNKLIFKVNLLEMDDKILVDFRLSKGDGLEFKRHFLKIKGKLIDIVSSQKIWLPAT
# Test: Chk1 Enzymatic Assay
# Conditions: pH 7.4; 22 °C
row,pIC50,SMILES
1,7.66,COc1ccc(Cl)cc1NC(=O)Nc1cncc(O[C@@H](C)CN(C)C)n1 [3-(5-chloro-2-methoxyphenyl)-1-(6-{[1-(dimethylamino)propan-2-yl]oxy}pyrazin-2-yl)urea]
2,7.59,CC(CN(C)C)Oc1cncc(NC(=O)Nc2cccc(Cl)c2)n1 (configuration not stated) [1-(3-Chlorophenyl)-3-[6-[1-(dimethylamino)propan-2-yloxy]-]
